{"source": "patent US20260272900A1", "about": "(Bayer Aktiengesellschaft, priority 2024, published 2026)", "system": "patients with heart failure and left ventricular ejection fraction ≥40% (HFmrEF/HFpEF)", "format": "in vivo", "conditions": "bilirubin Tertile 1 ≤0.4 mg/dL; N = 957", "data": [{"smiles": "CCOc1ncc(C)c2c1[C@H](c1ccc(C#N)cc1OC)C(C(N)=O)=C(C)N2", "note": "[finerenone, (4S)-4-(4-cyano-2-methoxyphenyl)-5-ethoxy-2,8-dimethyl-1,4-dihydro-1,6-naphthyridine-3-carboxamide]", "values": [{"measurement": "Total worsening HF events, event rate", "result": 12.4, "unit": "per 100 PY"}]}]}
